Our source for the inhibition and Ki values is ChEMBL document CHEMBL2029272, “7-Azabicyclo[2.2.1]heptane as a scaffold for the development of selective sigma-2 (σ2) receptor ligands” (Bioorg Med Chem Lett, 2012).

The structures appear in SMILES notation.

For assay [1], the target named is Delta-type opioid receptor (Homo sapiens) (UniProt P41143). Kind of assay: Inhibition of delta opioid receptor at 10 uM.
Assay [2] concerns the target Histamine H2 receptor (Homo sapiens) (UniProt P25021). The assay can be described thus: Inhibition of H2 receptor at 10 uM.
Assay [3] deals with T1, 5-hydroxytryptamine receptor 2C (Homo sapiens) (UniProt P28335).
T1 sequence (whole entry): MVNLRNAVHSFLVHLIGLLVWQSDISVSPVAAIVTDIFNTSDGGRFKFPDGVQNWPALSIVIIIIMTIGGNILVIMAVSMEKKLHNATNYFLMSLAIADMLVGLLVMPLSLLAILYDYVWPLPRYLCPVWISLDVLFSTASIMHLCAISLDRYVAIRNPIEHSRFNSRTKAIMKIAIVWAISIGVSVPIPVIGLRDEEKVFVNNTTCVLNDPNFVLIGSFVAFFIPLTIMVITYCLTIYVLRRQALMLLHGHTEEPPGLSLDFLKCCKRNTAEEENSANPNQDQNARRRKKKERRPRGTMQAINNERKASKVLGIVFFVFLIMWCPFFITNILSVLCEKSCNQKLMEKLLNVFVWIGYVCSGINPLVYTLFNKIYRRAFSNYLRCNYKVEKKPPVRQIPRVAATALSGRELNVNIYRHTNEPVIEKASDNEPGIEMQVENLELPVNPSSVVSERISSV
Kind of assay: Inhibition of 5-HT2C receptor at 10 uM.

The nature of assay [4]: Inhibition of GABA-A receptor at 10 uM.
Assay [5] deals with Histamine H4 receptor (Homo sapiens) (UniProt Q9H3N8). Kind of assay: Inhibition of H4 receptor at 10 uM.
Chain of Histamine H4 receptor (Homo sapiens) (Q9H3N8 whole entry): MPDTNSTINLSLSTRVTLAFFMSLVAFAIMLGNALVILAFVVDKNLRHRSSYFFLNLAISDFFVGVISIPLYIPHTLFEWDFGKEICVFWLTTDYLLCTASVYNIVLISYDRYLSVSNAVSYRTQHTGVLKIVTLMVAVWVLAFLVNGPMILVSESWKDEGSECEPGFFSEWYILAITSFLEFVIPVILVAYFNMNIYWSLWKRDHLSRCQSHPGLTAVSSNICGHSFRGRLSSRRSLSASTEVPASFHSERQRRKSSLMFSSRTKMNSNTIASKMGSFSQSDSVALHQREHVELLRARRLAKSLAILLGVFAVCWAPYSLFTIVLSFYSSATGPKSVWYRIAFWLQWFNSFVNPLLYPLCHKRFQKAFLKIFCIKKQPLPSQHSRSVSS
In assay [6] the target is Muscarinic acetylcholine receptor M2 (Homo sapiens, UniProt P08172). The assay can be described thus: Inhibition of M2 muscarinic receptor.
Assay [7] addresses Beta-1 adrenergic receptor (Homo sapiens) (UniProt P08588). The assay can be described thus: Inhibition of beta1 adrenergic receptor at 10 uM.
Assay [8] concerns the target Sigma non-opioid intracellular receptor 1 (Rattus norvegicus, UniProt Q9R0C9). Kind of assay: Displacement of [3H](+)-pentazocine from sigma1 receptor in rat brain homogenate. The format is tissue-based.
The next assay deals with Histamine H3 receptor (Homo sapiens, UniProt Q9Y5N1). The assay can be described thus: Inhibition of H3 receptor at 10 uM.
Chain of Histamine H3 receptor (Q9Y5N1 whole entry): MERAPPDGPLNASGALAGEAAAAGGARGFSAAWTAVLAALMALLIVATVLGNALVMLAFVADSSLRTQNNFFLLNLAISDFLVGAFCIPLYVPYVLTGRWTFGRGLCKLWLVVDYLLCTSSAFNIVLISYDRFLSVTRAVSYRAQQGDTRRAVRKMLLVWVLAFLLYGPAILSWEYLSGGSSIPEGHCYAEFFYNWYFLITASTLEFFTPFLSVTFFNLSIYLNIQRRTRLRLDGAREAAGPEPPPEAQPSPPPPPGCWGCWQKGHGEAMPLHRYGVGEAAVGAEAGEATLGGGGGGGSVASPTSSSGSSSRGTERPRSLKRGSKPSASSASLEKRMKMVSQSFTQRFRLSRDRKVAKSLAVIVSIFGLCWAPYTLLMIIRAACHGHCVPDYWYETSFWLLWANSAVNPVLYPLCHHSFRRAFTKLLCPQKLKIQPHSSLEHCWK
Assay [9] deals with 5-hydroxytryptamine receptor 2B (Homo sapiens) (UniProt P41595). The assay can be described thus: Inhibition of 5-HT2B receptor at 10 uM.
Chain of 5-hydroxytryptamine receptor 2B (Homo sapiens) (P41595 whole entry): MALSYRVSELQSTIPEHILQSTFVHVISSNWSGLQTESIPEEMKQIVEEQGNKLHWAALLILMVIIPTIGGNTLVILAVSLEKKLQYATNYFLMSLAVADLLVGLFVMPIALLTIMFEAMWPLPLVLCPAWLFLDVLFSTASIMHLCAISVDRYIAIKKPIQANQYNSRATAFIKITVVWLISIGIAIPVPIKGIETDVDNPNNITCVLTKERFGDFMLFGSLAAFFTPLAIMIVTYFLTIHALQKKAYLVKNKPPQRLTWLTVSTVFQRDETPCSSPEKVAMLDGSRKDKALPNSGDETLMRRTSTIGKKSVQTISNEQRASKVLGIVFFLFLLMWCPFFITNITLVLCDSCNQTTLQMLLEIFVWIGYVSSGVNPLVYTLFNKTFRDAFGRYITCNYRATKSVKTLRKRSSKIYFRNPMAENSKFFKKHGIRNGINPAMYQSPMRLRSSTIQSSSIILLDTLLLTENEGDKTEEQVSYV
A short description of assay [10]: Displacement of [3H]DTG from sigma2 receptor in […]. The class given is cell-based. Conditions: pc-12. In general terms: Loss of bound radioactivity is the signal in a displacement assay; it reports binding, not function.
In assay [11] the target is Kappa-type opioid receptor (Homo sapiens) (UniProt P41145). The assay can be described thus: Inhibition of kappa opioid receptor at 10 uM.
Chain of Kappa-type opioid receptor (Homo sapiens) (P41145 whole entry): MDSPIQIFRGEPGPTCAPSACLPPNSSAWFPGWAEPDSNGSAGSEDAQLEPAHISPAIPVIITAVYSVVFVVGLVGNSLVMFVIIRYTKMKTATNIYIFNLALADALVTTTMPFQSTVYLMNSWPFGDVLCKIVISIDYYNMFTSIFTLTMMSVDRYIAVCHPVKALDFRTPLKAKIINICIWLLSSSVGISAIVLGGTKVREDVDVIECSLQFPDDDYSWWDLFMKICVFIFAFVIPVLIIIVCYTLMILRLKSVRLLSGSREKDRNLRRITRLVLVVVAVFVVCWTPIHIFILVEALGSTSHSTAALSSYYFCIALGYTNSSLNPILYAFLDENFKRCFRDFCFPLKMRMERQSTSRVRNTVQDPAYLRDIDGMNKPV
The target of a further assay is D(1B) dopamine receptor (Homo sapiens, UniProt P21918). Kind of assay: Inhibition of D5 dopamine receptor at 10 uM.
Assay [12] addresses 5-hydroxytryptamine receptor 1D (Homo sapiens) (UniProt P28221). Kind of assay: Inhibition of 5-HT1D receptor at 10 uM.
Assay [13] has as its target T2, Muscarinic acetylcholine receptor M5 (Homo sapiens, UniProt P08912).
T2 sequence (P08912 whole entry): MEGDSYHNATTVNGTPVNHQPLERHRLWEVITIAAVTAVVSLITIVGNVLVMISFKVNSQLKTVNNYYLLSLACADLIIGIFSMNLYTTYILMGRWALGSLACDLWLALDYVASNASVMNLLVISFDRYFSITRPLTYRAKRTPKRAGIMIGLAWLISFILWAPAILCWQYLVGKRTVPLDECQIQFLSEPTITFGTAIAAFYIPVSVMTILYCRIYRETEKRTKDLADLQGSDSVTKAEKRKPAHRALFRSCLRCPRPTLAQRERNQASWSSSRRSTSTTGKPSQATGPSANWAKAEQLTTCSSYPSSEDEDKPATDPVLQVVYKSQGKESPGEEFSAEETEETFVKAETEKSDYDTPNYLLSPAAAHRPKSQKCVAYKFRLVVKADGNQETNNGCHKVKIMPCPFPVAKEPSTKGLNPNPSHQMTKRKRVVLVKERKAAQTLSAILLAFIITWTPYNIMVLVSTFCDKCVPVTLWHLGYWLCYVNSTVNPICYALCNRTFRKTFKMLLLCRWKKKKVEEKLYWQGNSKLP
Kind of assay: Inhibition of M5 muscarinic receptor.

Assay [14] deals with Sodium-dependent serotonin transporter (Homo sapiens, UniProt P31645). Kind of assay: Inhibition of SERT at 10 uM.
Chain of Sodium-dependent serotonin transporter (P31645 whole entry, looked up): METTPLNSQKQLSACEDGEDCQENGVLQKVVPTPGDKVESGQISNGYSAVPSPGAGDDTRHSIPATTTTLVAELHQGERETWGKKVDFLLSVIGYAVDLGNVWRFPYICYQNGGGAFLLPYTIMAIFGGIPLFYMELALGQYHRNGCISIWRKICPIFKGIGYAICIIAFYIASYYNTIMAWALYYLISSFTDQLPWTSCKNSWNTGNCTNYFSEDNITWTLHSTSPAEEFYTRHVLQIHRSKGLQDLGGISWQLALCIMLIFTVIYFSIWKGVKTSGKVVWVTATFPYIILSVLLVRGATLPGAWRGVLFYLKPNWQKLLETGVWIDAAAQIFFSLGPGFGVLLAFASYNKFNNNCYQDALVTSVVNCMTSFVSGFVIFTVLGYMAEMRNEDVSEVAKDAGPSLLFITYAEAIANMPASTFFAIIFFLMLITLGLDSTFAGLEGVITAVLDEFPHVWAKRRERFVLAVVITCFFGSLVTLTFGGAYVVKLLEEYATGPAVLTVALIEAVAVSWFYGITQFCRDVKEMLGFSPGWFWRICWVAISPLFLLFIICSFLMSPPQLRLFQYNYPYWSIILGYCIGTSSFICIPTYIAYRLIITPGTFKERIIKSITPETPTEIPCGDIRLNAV
A further assay has as its target D(2) dopamine receptor (Homo sapiens, UniProt P14416). The assay can be described thus: Inhibition of D2 dopamine receptor at 10 uM.
For assay [15], the target named is T3, D(4) dopamine receptor (Homo sapiens) (UniProt P21917).
T3 sequence (whole entry): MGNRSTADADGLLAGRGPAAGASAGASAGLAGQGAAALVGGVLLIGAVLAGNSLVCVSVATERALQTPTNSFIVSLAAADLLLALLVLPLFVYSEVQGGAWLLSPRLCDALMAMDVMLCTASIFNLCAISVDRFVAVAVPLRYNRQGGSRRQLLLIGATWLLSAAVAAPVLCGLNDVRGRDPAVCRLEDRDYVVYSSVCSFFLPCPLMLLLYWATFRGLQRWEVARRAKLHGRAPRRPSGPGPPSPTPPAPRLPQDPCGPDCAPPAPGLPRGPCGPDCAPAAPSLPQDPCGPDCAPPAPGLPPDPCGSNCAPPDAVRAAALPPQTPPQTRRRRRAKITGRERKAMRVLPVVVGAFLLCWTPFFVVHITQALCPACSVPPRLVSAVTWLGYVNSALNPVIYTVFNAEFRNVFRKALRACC
The assay can be described thus: Inhibition of D4 dopamine receptor at 10 uM.

For assay [16], the target named is T4, Alpha-1D adrenergic receptor (Homo sapiens) (UniProt P25100).
T4 sequence (whole entry): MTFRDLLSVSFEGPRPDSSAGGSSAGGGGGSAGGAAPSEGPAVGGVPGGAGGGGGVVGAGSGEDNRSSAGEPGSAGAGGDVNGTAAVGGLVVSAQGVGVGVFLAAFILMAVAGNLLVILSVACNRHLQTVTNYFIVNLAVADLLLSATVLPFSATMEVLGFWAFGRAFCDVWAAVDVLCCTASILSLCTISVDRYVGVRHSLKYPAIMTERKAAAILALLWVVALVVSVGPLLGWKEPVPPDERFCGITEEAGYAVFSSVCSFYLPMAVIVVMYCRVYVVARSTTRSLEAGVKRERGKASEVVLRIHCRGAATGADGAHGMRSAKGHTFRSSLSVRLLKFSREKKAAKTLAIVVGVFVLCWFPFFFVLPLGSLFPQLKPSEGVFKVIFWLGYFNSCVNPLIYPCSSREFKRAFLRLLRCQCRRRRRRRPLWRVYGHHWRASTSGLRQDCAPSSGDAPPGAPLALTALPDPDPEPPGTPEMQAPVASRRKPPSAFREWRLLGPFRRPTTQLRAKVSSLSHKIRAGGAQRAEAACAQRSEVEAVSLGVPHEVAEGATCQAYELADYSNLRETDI
The assay can be described thus: Inhibition of alpha1D adrenergic receptor at 10 uM.

The target in assay [17] is 5-hydroxytryptamine receptor 7 (Homo sapiens) (UniProt P34969). The assay can be described thus: Inhibition of 5-HT7 receptor at 10 uM.
Chain of 5-hydroxytryptamine receptor 7 (Homo sapiens) (P34969 whole entry): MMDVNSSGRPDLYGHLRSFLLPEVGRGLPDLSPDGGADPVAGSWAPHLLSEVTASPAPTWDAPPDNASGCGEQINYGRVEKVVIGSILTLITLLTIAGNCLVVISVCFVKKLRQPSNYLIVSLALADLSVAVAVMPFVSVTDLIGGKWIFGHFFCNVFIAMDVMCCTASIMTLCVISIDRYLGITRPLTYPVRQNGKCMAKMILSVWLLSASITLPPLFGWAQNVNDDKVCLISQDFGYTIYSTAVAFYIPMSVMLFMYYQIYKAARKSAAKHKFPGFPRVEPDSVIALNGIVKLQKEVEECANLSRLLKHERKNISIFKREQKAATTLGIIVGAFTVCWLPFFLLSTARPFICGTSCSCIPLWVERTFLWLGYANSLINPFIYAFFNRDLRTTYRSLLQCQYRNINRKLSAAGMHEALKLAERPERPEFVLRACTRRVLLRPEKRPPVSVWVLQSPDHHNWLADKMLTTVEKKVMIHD
Assay [18] has as its target Muscarinic acetylcholine receptor M3 (Homo sapiens, UniProt P20309). Kind of assay: Inhibition of M3 muscarinic receptor at 10 uM.

Chain of 5-hydroxytryptamine receptor 1D (Homo sapiens) (P28221 whole entry): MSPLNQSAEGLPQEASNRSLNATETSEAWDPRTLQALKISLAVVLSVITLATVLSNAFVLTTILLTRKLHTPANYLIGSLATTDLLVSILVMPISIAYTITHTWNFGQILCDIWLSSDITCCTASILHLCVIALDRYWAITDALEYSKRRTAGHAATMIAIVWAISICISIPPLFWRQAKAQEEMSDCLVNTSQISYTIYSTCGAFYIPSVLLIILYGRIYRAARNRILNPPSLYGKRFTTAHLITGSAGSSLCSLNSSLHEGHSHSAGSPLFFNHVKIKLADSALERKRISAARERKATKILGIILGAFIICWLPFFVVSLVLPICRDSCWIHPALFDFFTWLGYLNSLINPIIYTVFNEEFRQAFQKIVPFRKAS
Chain of Delta-type opioid receptor (Homo sapiens) (P41143 whole entry): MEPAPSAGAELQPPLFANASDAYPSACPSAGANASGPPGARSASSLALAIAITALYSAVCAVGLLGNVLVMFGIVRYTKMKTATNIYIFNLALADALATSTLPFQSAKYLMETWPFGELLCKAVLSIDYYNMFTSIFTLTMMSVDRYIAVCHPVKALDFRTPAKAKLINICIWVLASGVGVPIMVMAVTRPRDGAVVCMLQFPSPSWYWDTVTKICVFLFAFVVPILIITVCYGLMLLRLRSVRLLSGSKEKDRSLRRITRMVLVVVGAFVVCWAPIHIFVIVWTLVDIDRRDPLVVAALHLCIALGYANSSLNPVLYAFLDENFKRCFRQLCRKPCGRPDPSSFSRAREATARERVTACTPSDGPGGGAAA
Chain of D(2) dopamine receptor (P14416 whole entry): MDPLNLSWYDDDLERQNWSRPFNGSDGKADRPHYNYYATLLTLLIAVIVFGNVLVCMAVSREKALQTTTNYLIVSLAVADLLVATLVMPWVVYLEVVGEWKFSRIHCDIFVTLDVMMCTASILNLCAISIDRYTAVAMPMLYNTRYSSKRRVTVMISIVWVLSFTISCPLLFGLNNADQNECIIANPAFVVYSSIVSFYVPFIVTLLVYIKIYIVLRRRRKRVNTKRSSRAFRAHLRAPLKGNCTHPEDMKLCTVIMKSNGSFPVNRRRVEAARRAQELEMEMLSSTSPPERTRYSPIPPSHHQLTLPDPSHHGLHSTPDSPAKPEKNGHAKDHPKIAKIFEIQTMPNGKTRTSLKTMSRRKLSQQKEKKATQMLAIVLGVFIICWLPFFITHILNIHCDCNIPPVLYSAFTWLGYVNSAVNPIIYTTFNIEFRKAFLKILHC
Chain of Beta-1 adrenergic receptor (Homo sapiens) (P08588 whole entry, looked up): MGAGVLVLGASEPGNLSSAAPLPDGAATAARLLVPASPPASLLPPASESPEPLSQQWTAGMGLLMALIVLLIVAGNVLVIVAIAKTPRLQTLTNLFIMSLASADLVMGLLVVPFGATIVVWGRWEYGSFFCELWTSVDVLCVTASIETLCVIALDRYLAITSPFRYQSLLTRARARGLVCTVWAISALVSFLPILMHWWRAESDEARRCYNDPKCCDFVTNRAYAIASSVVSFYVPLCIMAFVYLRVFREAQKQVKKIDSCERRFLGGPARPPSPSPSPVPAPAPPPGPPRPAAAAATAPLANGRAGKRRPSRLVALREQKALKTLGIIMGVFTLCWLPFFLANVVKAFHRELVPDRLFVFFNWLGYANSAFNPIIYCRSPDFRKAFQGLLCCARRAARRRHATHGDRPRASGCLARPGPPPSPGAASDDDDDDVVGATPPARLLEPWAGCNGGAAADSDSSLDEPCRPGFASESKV
Chain of Histamine H2 receptor (Homo sapiens) (P25021 whole entry): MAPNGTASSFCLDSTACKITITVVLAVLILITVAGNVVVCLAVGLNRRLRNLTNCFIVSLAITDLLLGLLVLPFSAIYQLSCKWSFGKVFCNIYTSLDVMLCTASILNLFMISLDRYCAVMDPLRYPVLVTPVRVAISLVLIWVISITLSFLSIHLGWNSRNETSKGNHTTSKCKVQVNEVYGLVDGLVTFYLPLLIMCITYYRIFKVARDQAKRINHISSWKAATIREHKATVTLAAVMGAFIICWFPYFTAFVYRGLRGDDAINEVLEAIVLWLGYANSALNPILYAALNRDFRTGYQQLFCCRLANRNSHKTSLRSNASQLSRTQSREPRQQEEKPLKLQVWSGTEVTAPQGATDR

What is called inhibition is the change of the read-out against control, counted positive when it falls. Lower therefore signals little suppression. By Ki is commonly meant a measure of affinity in units of concentration, obtained from inhibition or displacement. Lower therefore signals higher affinity. Turning to `C1CC2CCC1N2CC12C3C4C5C3C1C5C42` (stereo not given), the inhibition in assay [1], in assay [2], in assay [3], in [4], in assay [5] and in assay [7] was less than 50% throughout. Moreover, the inhibition (against Histamine H3 receptor; in assay [9]; in assay [11]; against D(1B) dopamine receptor; in assay [12]; in [14]) was less than 50% in each case. Further, the inhibition (at D(2) dopamine receptor; in assay [15]; in assay [16]; in assay [17]) was less than 50% throughout. Moreover, the Ki in assay [6] was found to be 696 nM; in assay [8], 7 nM; in assay [10] it was 18 nM; in assay [13] it was 802 nM.
Turning to `C1CCC(CN2CCCC2)CC1`, the inhibition in assay [1], in assay [2], in assay [3], in [18], in assay [4] and in assay [5] was less than 50% throughout. For the same compound, the inhibition (in [7]; against Histamine H3 receptor; in assay [9]; in assay [11]; in [12]; in assay [14]) was less than 50% each time. The inhibition (at D(2) dopamine receptor; in assay [15]; in assay [16]; in assay [17]) was less than 50% throughout. Besides, the results for the Ki in assay [8], in assay [10] and in assay [13] were 51 nM, 410 nM and 2690 nM, respectively.
With `C1CCC(CN2C3CCC2CC3)CC1`, the inhibition in assay [1], in assay [2], in assay [3], in [18], in [4] and in assay [5] was less than 50% throughout. Further, the inhibition (in [7]; on Histamine H3 receptor; in assay [9]; in assay [11]; on D(1B) dopamine receptor; in assay [12]) was less than 50% throughout. Moreover, the inhibition (in assay [14]; on D(2) dopamine receptor; in assay [15]; in [16]; in assay [17]) was less than 50% each time. Further, the Ki in assay [6] came out at 4740 nM; in [8], 22 nM; in [10], 18 nM; in [13] it was 2670 nM.
